The text below walks through data of patent US20230100367A1, “METHODS OF TREATING CDGSH IRON SULFUR DOMAIN 2 INSUFFICIENCY-ASSOCIATED DISORDERS” (National Yang Ming Chiao Tung University, priority 2021, published 2023).

The test has as its system Cisd2 promoter with firefly luciferase reporter (HEK293-CISD2). Put plainly: Cisd2-luciferase reporter assay. Format: cell-based. Particulars: Homo sapiens; HEK293-CISD2 cells, 24 h incubation, luciferase activity. How it is done:
Compounds 1-35 were tested for increasing the level of Cisd2 in human embryonic kidney cells 293 (HEK293), a transfected cell line expressing Cisd2, using the Cisd2-luciferase reporter assay as described below.
The transfected HEK293 cells stably expressed Cisd2 promoter with firefly luciferase reporter (“HEK293-CISD2”). They were kept in Dulbecco's modified Eagle's medium (“DMEM”) (Gibco, New York, N.Y.). Culture medium was supplemented with 10% heat-inactivated fetal bovine serum (“FBS”), 2 mM L-Glutamine, 1 mM sodium pyruvate, 0.1% MEM Non-Essential Amino Acids, 1 μg/ml puromycin and 1% penicillin/streptomycin (HyClone, Logan, Utah). The cells were maintained at 37° C. in an incubator (Thermo Fisher Scientific, Waltham, Mass.) with an atmosphere of 5% CO2. The stably transfected cells were seeded in 384-well plates at a density of 3×10^3 cells/well. After incubation with a tested compound at 37° C. for 24 h, ONE-Glo™ Luciferase Assay System (Promega, Madison, Wis.) was added at room temperature for 10 minutes to detect any luciferase activity. Luminescence intensity was registered using plate reader BioTek Synergy Neo2™ (Agilent, Santa Clara, Calif.).
EC50 values in this table are presented in […] classes, i.e., A: <1 μM and B: 1 μM-10 μM.
Background: In a reporter assay the amount or activity of a reporter protein is the signal.
By EC50 is commonly meant the midpoint of the concentration-response curve. `Cc1ccc(NC(=O)c2sc(N)c(C#N)c2C)c(C)c1` [Compound 2, 5-Amino-4-cyano-N-(2,4-dimethylphenyl)-3-methylthiophene-2-carboxamide]: the 50% effective concentration (EC50) is 1000 to 10000 nM.
In the case of `COC(=O)c1c(N)sc(C(=O)Nc2cccnc2)c1C` [Compound 3, Methyl 2-amino-4-methyl-5-(pyridin-3-ylcarbamoyl)thiophene-3-carboxylate] it was less than 1000 nM.
In the case of `COC(=O)c1c(N)sc(C(=O)OC(C)(C)C)c1C` [Compound 4, 2-tert-Butyl 4-methyl 5-amino-3-methylthiophene-2,4-dicarboxylate] it was 1000 to 10000 nM; in that of `CCOC(=O)c1c(N)sc(C(=O)Nc2ccc(F)cc2)c1C` [Compound 5, Ethyl 2-amino-5-[(4-fluorophenyl)carbamoyl]-4-methylthiophene-3-carboxylate], less than 1000 nM.
For `COC(=O)c1c(N)sc(C(=O)Nc2ccc(OC)cc2)c1C` [Compound 6, Methyl 2-amino-5-[(4-methoxyphenyl)carbamoyl]-4-methylthiophene-3-carboxylate], the EC50 is less than 1000 nM.
`COC(=O)c1c(N)sc(C(=O)Nc2ccccc2C)c1C` [Compound 7, Methyl 2-amino-4-methyl-5-[(2-methylphenyl)carbamoyl]thiophene-3-carboxylate]: the EC50 was less than 1000 nM.
`COC(=O)c1c(N)sc(C(=O)Nc2ccc(C)cc2)c1C` [Compound 8, Methyl 2-amino-4-methyl-5-[(4-methylphenyl)carbamoyl]thiophene-3-carboxylate]: the EC50 was less than 1000 nM.
Then `COC(=O)c1c(N)sc(C(=O)Nc2ccccc2)c1C` [Compound 9, Methyl 2-amino-4-methyl-5-(phenylcarbamoyl)thiophene-3-carboxylate], with less than 1000 nM.
Then `COC(=O)c1c(N)sc(C(=O)Nc2ccc(C(F)(F)F)cc2)c1C` [Compound 10, Methyl 2-amino-4-methyl-5-{-[4-(trifluoromethyl)phenyl]carbamoyl}thiophene-3-carboxylate], with less than 1000 nM; and `COC(=O)c1c(N)sc(C(=O)Nc2ccc(N(C)C)cc2)c1C` [Compound 11, Methyl 2-amino-5-{-[4-(dimethylamino)phenyl]carbamoyl}-4-methylthiophene-3-carboxylate], with less than 1000 nM; and `Cc1ccc(NC(=O)c2sc(N)c(C(N)=O)c2C)c(C)c1` [Compound 12, 5-Amino-N^2-(2,4-dimethylphenyl)-3-methylthiophene-2,4-dicarboxamide], with less than 1000 nM.
Then `COC(=O)c1c(N)sc(C(=O)Nc2ccc(F)cc2)c1C` [Compound 13, Methyl 2-amino-5-[(4-fluorophenyl)carbamoyl]-4-methylthiophene-3-carboxylate], with less than 1000 nM; and `Cc1ccc(NC(=O)c2sc(N)c(C(=O)OC(C)C)c2C)c(C)c1` [Compound 14, Propan-2-yl 2-amino-5-[(2,4-dimethylphenyl)carbamoyl]-4-methylthiophene-3-carboxylate], with 1000 to 10000 nM.
Regarding `COC(=O)c1c(N)sc(C(=O)Nc2ccc(C#N)cc2)c1C` [Compound 15, Methyl 2-amino-5-[(4-cyanophenyl)carbamoyl]-4-methylthiophene-3-carboxylate], the half-maximal effective concentration (EC50) is less than 1000 nM.
Then `COC(=O)c1c(N)sc(C(=O)Nc2cccc(C)c2)c1C` [Compound 16, Methyl 2-amino-4-methyl-5-[(3-methylphenyl)carbamoyl]thiophene-3-carboxylate], with less than 1000 nM; and `COC(=O)c1c(N)sc(C(=O)Nc2c(C)cc(C)cc2C)c1C` [Compound 17, Methyl 2-amino-4-methyl-5-[(2,4,6-trimethylphenyl)carbamoyl]thiophene carboxylate], with 1000 to 10000 nM; and `COC(=O)c1c(N)sc(C(=O)Nc2cc(OC)c(OC)c(OC)c2)c1C` [Compound 18, Methyl 2-amino-4-methyl-5-[(3,4,5-trimethoxyphenyl)carbamoyl]thiophene-3-carboxylate], with 1000 to 10000 nM.
Then `COC(=O)c1c(N)sc(C(=O)Nc2nccs2)c1C` [Compound 19, Methyl 2-amino-4-methyl-5-(1,3-thiazol-2-ylcarbamoyl)thiophene-3-carboxylate], with less than 1000 nM; and `COC(=O)c1c(N)sc(C(=O)Nc2cccc(OC)c2)c1C` [Compound 20, Methyl 2-amino-5-[(3-methoxyphenyl)carbamoyl]-4-methylthiophene-3-carboxylate], with less than 1000 nM; and `COC(=O)c1c(N)sc(C(=O)Nc2ccc(O)cc2)c1C` [Compound 21, methyl 2-amino-5-[(4-hydroxyphenyl)carbamoyl]-4-methylthiophene-3-carboxylate], with less than 1000 nM.
Consider `COC(=O)c1cc(C(=O)Nc2ccc(C)cc2C)sc1N` [Compound 22, Methyl 2-amino-5-[(2,4-dimethylphenyl)carbamoyl]thiophene-3-carboxylate], for which the half-maximal effective concentration (EC50) was in the range of 1000 to 10000 nM.
In the case of `COC(=O)c1c(N)sc(C(=O)Nc2ccc(C)cc2C)c1Br` [Compound 23, methyl 2-amino-4-bromo-5-[(2,4-dimethylphenyl)carbamoyl]thiophene-3-carboxylate], the EC50 was less than 1000 nM.
On to `COC(=O)c1c(N)sc(C(=O)Cc2ccc(C)cc2C)c1C` [Compound 24, methyl 2-amino-5-[(2,4-dimethylphenyl)acetyl]-4-methylthiophene-3-carboxylate], for which the EC50 was 1000 to 10000 nM.
Then `CCOC(=O)c1c(N)sc(C(=O)Nc2ccc(C)cc2C)c1C` [Compound 25, Ethyl 2-amino-5-[(2,4-dimethylphenyl)carbamoyl]-4-methylthiophene-3-carboxylate], with less than 1000 nM; and `CCOC(=O)c1cccc(NC(=O)c2sc(N)c(C(=O)OCC)c2C)c1` [Compound 26, Ethyl 2-amino-5-{[3-(ethoxycarbonyl)phenyl]carbamoyl}-4-methylthiophene-3-carboxylate], with 1000 to 10000 nM.
Then `Cc1ccc(NC(=O)c2sc(N)c(C(=O)O)c2C)c(C)c1` [Compound 27, 2-amino-5-[(2,4-dimethylphenyl)carbamoyl]-4-methylthiophene-3-carboxylic acid], with less than 1000 nM; and `Cc1ccc(NC(=O)c2sc(N)c(C(=O)NCC#N)c2C)c(C)c1` [Compound 28, 5-amino-N^4-(cyanomethyl)-N^2-(2,4-dimethylphenyl)-3-methylthiophene-2,4-dicarboxamide], with 1000 to 10000 nM.
In the case of `Cc1ccc(NC(=O)c2sc(N)c(C(=O)CO)c2C)c(C)c1` [Compound 29, 5-amino-N-(2,4-dimethylphenyl)-4-(hydroxyacetyl)-3-methylthiophene-2-carboxamide] it was less than 1000 nM; in that of `CC(=O)c1c(N)sc(C(=O)Nc2ccc(C)cc2C)c1C` [Compound 30, 4-acetyl-5-amino-N-(2,4-dimethylphenyl)-3-methylthiophene-2-carboxamide], less than 1000 nM.
As for `CC(=O)c1c(N)sc(C(=O)Nc2ccccc2)c1C` [Compound 31, 4-Acetyl-5-amino-3-methyl-N-phenylthiophene-2-carboxamide], the EC50 is less than 1000 nM.
In the case of `CC(=O)c1c(N)sc(C(=O)Nc2ccc(F)cc2)c1C` [Compound 32, 4-Acetyl-5-amino-N-(4-fluorophenyl)-3-methylthiophene-2-carboxamide] it was less than 1000 nM; in that of `COC(=O)c1c(NC(C)=O)sc(C(=O)Nc2ccc(C)cc2C)c1C` [Compound 33], 1000 to 10000 nM.
In the case of `Cc1ccc(NC(=O)c2sc(N)c(C(=O)OC(C)(C)C)c2C)c(C)c1` [Compound 34, tert-Butyl 2-amino-5-[(2,4-dimethylphenyl)carbamoyl]-4-methylthiophene carboxylate] it was 1000 to 10000 nM; in that of `COC(=O)c1c(N)sc(C(=O)Nc2ccccc2OC)c1C` [Compound 35, Methyl 2-amino-5-[(2-methoxyphenyl)carbamoyl]-4-methylthiophene-3-carboxylate], 1000 to 10000 nM.
